Test results from ChEMBL document CHEMBL5257018, “Novel Strategies for the Treatment of Pseudomonas aeruginosa Infections” (J Med Chem, 2016).
Converted amounts (≈) assume the structure as drawn. Numbered stars: 1 amine (or outer) side, 2 acyl side, 3 side chain; on linkers, the order of the positions; unused ones are H or OH. Bridge positions count the residues as written; N and C are the ends. Square brackets hold non-standard residues; d marks the D form. Side chains are listed from the residue outwards. Peptide text beside a SMILES is read from it. I, II: the chains in the order shown. X2 = COc1cccc2[nH]c(C)c(C[C@H](N[*:1])C(=O)[*:2])c12; dAla(ψthiazole) = C[C@@H](N[*:1])c1nc(C(=O)[*:2])cs1; Trp(4-OMe) = COc1cccc2[nH]cc(C[C@H](N)C(=O)O)c12; X3 = O=C(c1csc([C@@H](CO)N[*:1])n1)[*:2]; GlyΨ(Thz) = O=C(c1csc(CN[*:1])n1)[*:2]; dDab = NCC[C@@H](N)C(=O)O; Orn = NCCC[C@H](N)C(=O)O; dAbu = CC[C@@H](N)C(=O)O; Dab = NCC[C@H](N)C(=O)O; Dha = C=C(N)C(=O)O; Sar = CNCC(=O)O

System: not listed separately
Experiment: Antagonist activity at Pseudomonas aeruginosa MvfR

In order of rising IC50:
1. CCCCCCCCCc1nc2cc(Cl)ccc2c(=O)n1N  50 nM
2. CC(C)(C)c1ccc(C(=O)NO)cc1  87 nM
3. Nc1nnc(-c2cccc(C(F)(F)F)c2)o1  250 nM
4. O=C(CSc1nc2cc([N+](=O)[O-])ccc2[nH]1)Nc1ccc(Oc2ccccc2)cc1  300 nM

System: Pseudomonas aeruginosa
Experiment: Antimicrobial activity against Pseudomonas aeruginosa assessed as reduction in bacterial growth
Format: functional, organism-based

In order of rising IC50:
1. C=C1NC(=O)[C@@H](CC)NC(=O)CNC(=O)[C@H](Cc2c[nH]c3cccc(OC)c23)NC(=O)[C@H](Cc2c[nH]c3ccccc23)NC(=O)c2csc(n2)[C@@H](C)NC(=O)CN(C)C1=O (cyclo([Dha][Sar][dAla(ψthiazole)]W[Trp(4-OMe)]G[dAbu]))  0.08 µg/mL (≈ 0.0954 µM)
2. C=C1NC(=O)[C@@H](C)NC(=O)CNC(=O)[C@H](Cc2c(C)[nH]c3cccc(OC)c23)NC(=O)[C@H](Cc2c[nH]c3ccccc23)NC(=O)c2csc(n2)[C@@H](C)NC(=O)CN(C)C1=O (cyclo(W[X2]G[dA][Dha][Sar][dAla(ψthiazole)]))  0.1 µg/mL (≈ 0.119 µM)
3. C=C1NC(=O)[C@@H](C)NC(=O)CNC(=O)[C@H](Cc2c[nH]c3cccc(OC)c23)NC(=O)[C@H](Cc2c[nH]c3ccccc23)NC(=O)c2csc(n2)[C@@H](C)NC(=O)CN(C)C1=O (cyclo(W[Trp(4-OMe)]G[dA][Dha][Sar][dAla(ψthiazole)]))  0.12 µg/mL (≈ 0.145 µM)
4. C=C1NC(=O)[C@@H](C)NC(=O)CNC(=O)[C@H](Cc2c[nH]c3cccc(OC)c23)NC(=O)[C@H](Cc2c[nH]c3ccccc23)NC(=O)c2csc(n2)CNC(=O)CN(C)C1=O (cyclo([Dha][Sar][GlyΨ(Thz)]W[Trp(4-OMe)]G[dA]))  0.8 µg/mL (≈ 0.987 µM)
5. C=C1NC(=O)[C@@H](C)NC(=O)CNC(=O)[C@H](Cc2c[nH]c3ccccc23)NC(=O)[C@H](Cc2c[nH]c3ccccc23)NC(=O)c2csc(n2)[C@@H](C)NC(=O)CN(C)C1=O  1.4 µg/mL (≈ 1.76 µM)
6. C=C1NC(=O)[C@@H](CC)NC(=O)CNC(=O)[C@H](Cc2c[nH]c3cccc(OC)c23)NC(=O)[C@H](Cc2c[nH]c3ccccc23)NC(=O)c2csc(n2)[C@@H](CO)NC(=O)CN(C)C1=O (cyclo([Dha][Sar][X3]W[Trp(4-OMe)]G[dAbu]))  4 µg/mL (≈ 4.68 µM)

In order of falling MIC:
1. CC[C@H](C)[C@H](NC(=O)[C@H](CCCNC(=N)N)NC(=O)[C@H](CCCNC(=N)N)NC(=O)[C@H](Cc1ccccc1)NC(=O)[C@H](CC(C)C)NC(=O)[C@H](CCCNC(=N)N)NC(=O)[C@@H](N)CCCNC(=N)N)C(=O)N[C@@H](CC(C)C)C(=O)N[C@@H](CCCNC(=N)N)C(=O)N[C@@H](Cc1ccc(O)cc1)C(=O)N[C@@H](CC(C)C)C(=O)O (H-RRLFRRILRYL-OH)  2.5 µM
2. C[C@@H](N)C(=O)N[C@H](CCCCN)C(=O)N[C@H](CCCNC(=N)N)C(=O)N[C@H](Cc1c[nH]cn1)C(=O)N[C@H](Cc1c[nH]cn1)C(=O)NCC(=O)N[C@H](Cc1ccc(O)cc1)C(=O)N[C@H](CCCCN)C(=O)N[C@H](CCCNC(=N)N)C(=O)N[C@H](CCCCN)C(=O)N[C@H](Cc1ccccc1)C(=O)N[C@H](Cc1c[nH]cn1)C(N)=O (H-[dA][dK][dR][dH][dH]G[dY][dK][dR][dK][dF][dH]-NH2)  2 µM
3. CCCCCCCCCCCCCB(O)O  1 µM
4. CC(C)C[C@H](NC(=O)[C@H](CCCCN)NC(=O)[C@H](CCCCNC(=O)[C@H](CC(C)C)NC(=O)[C@H](CCCCN)NC(=O)[C@H](CCCCNC(=O)[C@H](CC(C)C)NC(=O)[C@H](CCCCN)NC(=O)[C@H](CCCCNC(=O)[C@H](CC(C)C)NC(=O)[C@@H](N)CCCCN)NC(=O)[C@H](CC(C)C)NC(=O)[C@@H](N)CCCCN)NC(=O)[C@H](CC(C)C)NC(=O)[C@H](CCCCN)NC(=O)[C@H](CCCCNC(=O)[C@H](CC(C)C)NC(=O)[C@@H](N)CCCCN)NC(=O)[C@H](CC(C)C)NC(=O)[C@@H](N)CCCCN)NC(=O)[C@H](CC(C)C)NC(=O)[C@H](CCCCN)NC(=O)[C@H](CCCCNC(=O)[C@H](CC(C)C)NC(=O)[C@H](CCCCN)NC(=O)[C@H](CCCCNC(=O)[C@H](CC(C)C)NC(=O)[C@@H](N)CCCCN)NC(=O)[C@H](CC(C)C)NC(=O)[C@@H](N)CCCCN)NC(=O)[C@H](CC(C)C)NC(=O)[C@H](CCCCN)NC(=O)[C@H](CCCCNC(=O)[C@H](CC(C)C)NC(=O)[C@@H](N)CCCCN)NC(=O)[C@H](CC(C)C)NC(=O)[C@@H](N)CCCCN)C(N)=O (I: H-KLK([Leu-Lys])KLKKLKKL-NH2 / II: H-KLK([Leu-Lys])KLKKL / III: H-KLK([Leu-Lys])KL / IV: H-KLK([Leu-Lys])KL; amide I:6-IV:C, I:9-II:C, II:6-III:C)  0.4 µM
5. CC(C)[C@H](NC(=O)[C@H](Cc1c[nH]c2ccccc12)NC(=O)[C@H](CCCNC(=N)N)NC(=O)[C@H](CCCNC(=N)N)NC(=O)[C@@H](NC(=O)[C@@H](NC(=O)[C@H](CCCNC(=N)N)NC(=O)[C@@H](NC(=O)[C@@H](NC(=O)[C@H](CCCNC(=N)N)NC(=O)[C@H](CCCNC(=N)N)NC(=O)[C@@H](NC(=O)[C@H](Cc1c[nH]c2ccccc12)NC(=O)[C@H](CCCNC(=N)N)NC(=O)[C@H](CCCNC(=N)N)NC(=O)[C@@H](NC(=O)[C@H](CCCNC(=N)N)NC(=O)[C@H](CCCNC(=N)N)NC(=O)[C@@H](NC(=O)[C@H](Cc1c[nH]c2ccccc12)NC(=O)[C@H](CCCNC(=N)N)NC(=O)[C@@H](N)CCCNC(=N)N)C(C)C)C(C)C)C(C)C)C(C)C)C(C)C)C(C)C)C(C)C)C(=O)N[C@@H](CCCNC(=N)N)C(=O)N[C@@H](CCCNC(=N)N)C(=O)O (H-RRWVRRVRRWVRRVVRVVRRWVRR-OH)  0.4 µM

Compound `Cc1ccc2c(C)c3c(c(O)c2c1O)C(=O)[C@]1(O)C(=O)C(C(N)=O)=C(O)[C@H](N)[C@@H]1C3` has an MIC of 32 µg/mL.

`CC[C@H](C)[C@@H]1NC(=O)[C@H](Cc2c[nH]c3ccccc23)NC(=O)[C@H]([C@@H](C)O)NC(=O)[C@@H]2CCCN2C(=O)[C@H]2CCCN2C(=O)[C@H](CO)NC(=O)[C@H](C)NC(=O)[C@H](CCN)NC(=O)[C@H](CCN)NC(=O)[C@H](Cc2c[nH]c3ccccc23)NC(=O)[C@H](CCN)NC(=O)[C@@H](CCN)NC(=O)[C@H](CCCN)NC(=O)[C@H](CCN)NC1=O` [MUREPAVADIN] (cyclo(TWI[Dab][Orn][dDab][Dab]W[Dab][Dab]AS[dP]P)) gave an MIC50 of 10 µg/mL (≈ 6.44 µM).
